The values that follow come from publication PMC13233820, “Recruitment of Mre11 to recombination sites during meiosis” (Nature Communications, 2026).

One experiment concerns the target T1, Smt3 (Saccharomyces cerevisiae, UniProt Q12306).
T1 construct: 6xHis (C); made in house; host or cells: E. coli BL21 (DE3)pLysS
Description: Isothermal titration calorimetry, SIM3 peptides on Smt3. Format: binding. As to conditions: 2 mM peptide in syringe, 20 mM NaPi 100 mM NaCl pH 7.5, 10% DMSO, 25 °C. On the procedure:
The syringe contained 2 mM of peptide, while the cell held 150 µM or 300 µM of protein. […] For the ITC titrations, equal amounts of DMSO (10%) were included in both compartments to minimize the heat of dilution. Each titration consisted of a first injection of 0.4 µL, followed by 12-13 injections of 2 µL peptide into the cell, separated by intervals of 120 s. The first injection was discarded during the analysis of the data. The wild-type peptide titration on Smt3 was performed in duplicate. The Microcal LLC ITC200 Origin software was used to fit the data to a single binding site model.
For orientation: ITC needs no label: the signal is the heat of the interaction.

The test system of the next experiment is U-[13C,15N] Smt3. The experiment in a line: NMR chemical shift perturbation, SIM3 peptides with Smt3. Conditions: 1.2 molar equivalents of peptide, 0.3 mM Smt3, 20 mM sodium phosphate, 20 mM NaCl pH 6.5, 298 K. Format: binding, Saccharomyces cerevisiae. The method, then:
The samples contained 0.3–0.6 mM of U-[^13C,^15N] […] All NMR spectra were acquired at 298 K on a Bruker Avance III HD 800 MHz spectrometer, equipped with a TCI cryoprobe. The NMR data were acquired in TopSpin 3.6 (Bruker) and processed in NMRPipe v.7.5[76] and analyzed in CCPNMR v. 2.4.2[77]. Assignments of Smt3 backbone amide resonances were taken from literature[78] and verified by 3D HNCACB, HN(CO)CACB, and ^15N-edited NOESY-HSQC (mixing time 100 ms) spectra. Further assignments of methyl resonances were obtained from [^1H, ^13C] […] The assigned ^1H, ^13C and ^15N chemical shifts of the free and bound Smt3 have been deposited in the Biological Magnetic Resonance Bank (http://www.bmrb.wisc.edu/) under the accession number 53209.
The NMR binding experiments were performed by an incremental addition of wild-type or mutant SIM peptides (1.2 mM stocks in the working buffer) to 0.3 mM samples of U-[^13C,^15N] Smt3, with the spectral changes monitored in [^1H,^15N] HSQC spectra acquired at each increment and [^1H, ^13C] […] The average chemical shift perturbations (Δδavg) were calculated as Δδavg = (ΔδX^2/n + ΔδH^2/2)^0.5, where ΔδX and ΔδH are the chemical shift changes of the backbone amide nitrogens or methyl carbons (ΔδX) and protons (ΔδH) of Smt3 residues upon addition of 1.2 molar equivalents of SIM peptides, and n = 50 or 9 for the backbone amide and methyl groups, respectively.

T1 sequence (Q12306 whole entry): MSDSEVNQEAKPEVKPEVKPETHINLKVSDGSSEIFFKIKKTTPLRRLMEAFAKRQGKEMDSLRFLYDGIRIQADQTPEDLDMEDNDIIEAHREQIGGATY

Turning to “ENDAIAVSTDE [mutant SIM3 peptide, SIM3 peptide with I633 and M635 mutated to alanine]”, on Smt3, the “ITC interaction with Smt3” value is on record as “failed to interact with Smt3”. With ENDIIMVSTDE [wild-type SIM3 peptide], in the experiment on U-[13C,15N] Smt3, the “Average backbone amide chemical shift perturbation of Smt3 (in words)” value was “induced strong backbone amide chemical shift to Smt3 residues I35, F36, F37, K38, I39 and R46”.
